Test results published in the SangsterLogP compilation.

Test: method code SF-AS, from DOI: 10.1007/bf00500963, PMID: 600309

SMILES	logP
O=[N+]([O-])c1cc(Cl)c(N=C2NCCN2)c(Cl)c1	2.1
Cc1cc(Cl)c(NC2=NCCN2)c(Cl)c1	1.92
Clc1ccc(Cl)c(N=C2NCCN2)c1	2.04
Clc1ccccc1N=C1NCCN1	1.36
Cc1cc(C)c(N=C2NCCN2)c(C)c1	2.32
Cc1cc(Br)cc(C)c1N=C1NCCN1	2.8
Cc1cc(Cl)cc(Cl)c1N=C1NCCN1	2.38
Clc1cccc(Cl)c1N=C1NCCN1	1.59
Brc1cc(Br)c(N=C2NCCN2)c(Br)c1	2.74
Cc1cc(Cl)cc(C)c1N=C1NCCN1	2.5
Clc1cccc(Br)c1N=C1NCCN1	1.73
Clc1cc(Br)cc(Cl)c1N=C1NCCN1	2.66
Clc1cccc(NC2=NCCN2)c1Cl	2.01
CCc1cccc(CC)c1N=C1NCCN1	2.6
Cc1ccccc1N=C1NCCN1	1.28
Cc1ccc(N=C2NCCN2)c(C)c1	1.78
Fc1cccc(Cl)c1N=C1NCCN1	1.45
COc1cc(Cl)c(N=C2NCCN2)c(Cl)c1	1.6
Cc1cc(C)c(N=C2NCCN2)c(Cl)c1	2.1
